From US12648939B2, “Compounds and methods for treating spasticity” (Lexicon Pharmaceuticals, Inc., priority 2022, dated 2026)

Assays:
[1] = system: rat model of spasticity induced by complete spinal cord transection; assay: Rate-dependent depression (RDD) of the H-reflex in SCI rats; format: in vivo; details: single P.O. 4.5 mg/kg
Method: (§1) The efficacy of Compound 1 was measured in a rat model of spasticity induced by complete spinal cord transection. To induce muscle spasticity, a model of complete spinal cord transection cord at the eighth thoracic (T8) vertebral level was used. Five weeks after the Spinal Cord Injury (SCI), the rats were orally (P.O.) treated with Compound 1 (3, 10, or 30 mg/kg), Baclofen (4.5 mg/kg). Tizanidine (3 mg/kg) or vehicles alone (0.9% NaCl, Compound 1 vehicle), and the degree of spasticity response was measured using the rate-dependent depression (RDD) of the Hoffmann's reflex (H-reflex) and spasms induction.
(§2) Materials and Methods. […] One hundred and fifty-one SCI rats were maintained up to the end of the 5th post-injury week. One hundred and forty rats were submitted to P.O. administration of the test compounds and EMG analysis.
(§3) The rat was firmly restrained to immobilize the head. In an upright position, the gavage needle was passed along the side of the mouth. Following the roof of the mouth, the needle was advanced into the esophagus and toward the stomach. After the needle is passed to the correct length, the compound was slowly injected. The rats were randomly assigned to one of the test groups:
(§4) Electroneuromyographical recordings were performed in the right hind limbs before and 1, 2, 3, 4, 5 and 6 hours after P.O. administration.
(§5) Electromyographical (EMG) signals were amplified (100×) and bandpass filtered (300 Hz to 5 kHz; A-M Systems Amplifier. Everett, Washington; model 1700) before sampling at 13.5 kHz (Digidata 1440A, Molecular Devices). The tibial nerve was stimulated by using square pulses with increasing stimulus intensities (0.2 mA increments starting from 0.2 mA, 0.2 Hz, 0.2 ms; A-M systems stimulator, Model 2100) to obtain recruitment curves.
RDD of the H-reflex: To induce sedation, intraperitoneal injection of ketamine (100 mg/kg; Imalgen®) was used to suppress voluntary movements and increase muscle tone. Rats thorax and hindlimbs were secured on a heating pad with adhesive tape. The following series of measurements were repeated throughout the experiment: • 1. Hmax and Mmax determination: the tibial nerve was stimulated for 0.2 ms at 0.2 Hz with increasing current intensities (1-6 mA in 0.1 mA increments) until Mmax was stabilized. • 2. RDD measurement: the intensity necessary to obtain a maximal H-reflex was used for trains of 13 stimulations at 0.2, 1, 2 and 5 Hz with 2 min intervals between each train of stimulations. A whole series of measurements lasted about 15 minutes. • 3. Determination of the level of RDD: at the different frequencies, responses to the first three stimulations necessary for the depression to occur were discarded, and all the responses were expressed as percentages relative to the mean response at 0.2 Hz in the same series of measurements.
(§6) Data analysis: H-reflex RDDs and areas under the curves (AUC) were determined as a measurement of spasticity and analyzed at each time point and for each frequency with Mann-Whitney test or with Kruskal Wallis one-way analysis of variance (ANOVA) test, followed by Dunn's multiple comparisons test. P<0.05 was considered significant. Significant differences were marked with asterisks (*) according to their respective P-values: values were expressed as the mean value±standard error of the mean (SEM) in all graphs. All statistical analyses were performed using GraphPad Prism 7 (San Diego, California, USA).
Modulation of the RDD of the H-reflex. The Hoffmann reflex was used to assess primary (type 1a) afferents-mediated motoneuronal excitability in rats suffering from spasticity. Electromyograms typically show two responses: an initial M wave (FIG. 6B) resulting from the direct activation of motor axons (FIG. 6A-1), and a delayed H wave (FIG. 6B) resulting from the monosynaptic activation of motoneurons by the afferents (FIG. 6A-2). […]

[2] = system: rat model of spasticity induced by complete spinal cord transection; assay: Muscle spasms evoked by tibial nerve stimulation in chronic SCI rats; format: in vivo; details: single P.O. 4.5 mg/kg
Method: as §1, §2, §3, §4, §5
Muscles spasms: In awake chronic SCI rats, muscle spasms were evoked with stimulation of the tibial nerve while performing electromyographic (EMG) recordings from the flexor digitorum brevis (FDB) muscle. Spastic spinal rats were handled nine days before the experiment and progressively habituated to be individually constrained in a plexiglass tube and to immobilization of their paralyzed hindlimbs with tape. • 1. Hmax and Mmax determination: the tibial nerve was stimulated for 0.2 ms at 0.2 Hz with increasing current intensities (1-6 mA in 0.2 mA increments) until Mmax was stabilized. • 2. A supramaximal single-pulse stimulation to elicit muscle spasms was fixed throughout the experiment (2 or 3 times the threshold intensity for M-wave) and evoked 5 times, with 60 s interstimulus intervals. EMG were rectified and averaged over 2000 ms interval post-stimulus to quantify spasms (Clamplit 8.0, Axon Instruments).
as §6
Modulation of Muscle Spasms. When the tibial nerve was stimulated in acutely (1 week after injury) injured rats, little reflexes were evoked in the FDB muscle (FIG. 8A), regardless of the stimulation intensity. In contrast, stimulation of the tibial nerve in chronic (5 weeks after injury) SCI rats produced more (P<0.0001; Mann-Whitney test; FIG. 8C) long-lasting muscle contractions (FIG. 8B). This effect is a reliable correlate of the development of spasticity. In spastic rats, spasms were induced through the FDB muscle after electrical stimulation of the tibial nerve. […]

## NCC(CC(=O)O)c1ccc(Cl)cc1 (stereo not drawn) [Baclofen, reference compound]
[1]
  maximum effect, time (H-reflex RDD): 5 h
  onset of action (H-reflex RDD): 1 h
[1]; SCI rats 5 weeks after injury
  mean relative amplitudes of the H-reflex (RDD): significantly reduced
[2]
  maximum effect, time (muscle spasms): 2 h
  muscle spasms (AUC): reduced
  onset of action (muscle spasms): 1 h
